For eleven compounds, GI50 and TGI results are on record in PubChem BioAssay (NCI).

Some test systems named below: SR leukemia; CCRF-CEM leukemia; SK-OV-3 ovarian; SF-268 CNS; CAKI-1 renal; SK-MEL-5 melanoma; SW-620 colon; A498 renal; RXF 393 renal; MDA-MB-231 breast.
Test in all cases: DTP human tumour cell line panel, 48 h

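Each compound was tested at five concentrations against cells in 96-well plates for 48 hours. Here, GI50 denotes the concentration required for 50% inhibition of growth. At the TGI there is no net growth.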

One may read the GI50 as the concentration giving 50% growth inhibition. Broadly, the TGI is the concentration at which net growth stops. The low end stands for greater sensitivity of the cells, the high end for lower sensitivity of the cells.

Turning to `CCC[CH2][Sn]([Cl])([CH2]CCC)[CH2]CCC`, the concentration for 50% growth inhibition (GI50) with SR leukemia is 0.066 µM; with CCRF-CEM leukemia it was 0.0288 µM; with SK-OV-3 ovarian, 0.181 µM; with SF-268 CNS, 0.148 µM; with CAKI-1 renal, 0.167 µM; in the assay on SK-MEL-5 melanoma, 0.192 µM. Further, in the assay with SW-620 colon, the 50% growth inhibitory concentration (GI50) was 0.125 µM. Further, the concentration for total growth inhibition (TGI) is 0.596 µM in the assay with SR leukemia; 0.225 µM in the assay with CCRF-CEM leukemia; 0.56 µM in the assay with SK-OV-3 ovarian; 0.314 µM in the assay with SF-268 CNS; 1.23 µM with CAKI-1 renal; 0.808 µM in the assay with SK-MEL-5 melanoma. The TGI in the assay with SW-620 colon came to 0.273 µM.

`O=C(Nc1ccncc1)C(=O)c1cn(S(=O)(=O)c2ccc(F)cc2)c2ccccc12`: the GI50 with A498 renal was 6.57 µM; with CCRF-CEM leukemia, 6.21 µM; in the assay with SK-OV-3 ovarian, 22.3 µM; in the assay with SF-268 CNS it was 4.4 µM; in the assay with CAKI-1 renal it was 2.19 µM; in the assay with RXF 393 renal, 2.6 µM. Moreover, the GI50 in the assay on MDA-MB-231 breast is 5.97 µM; in the assay on SK-MEL-5 melanoma, 1.84 µM; with SW-620 colon it was 2.34 µM. Besides, the TGI was 63.2 µM with A498 renal; more than 100 µM in the assay with CCRF-CEM leukemia; 85.9 µM in the assay on SK-OV-3 ovarian; more than 100 µM in the assay with SF-268 CNS; 10.9 µM with CAKI-1 renal; 8.72 µM in the assay with RXF 393 renal. Further, the results for the concentration for total growth inhibition (TGI) with MDA-MB-231 breast, in the assay on SK-MEL-5 melanoma and with SW-620 colon were more than 100 µM, 16.3 µM and more than 100 µM, respectively.

For the compound `N#CC(C(=O)C(=O)C(C#N)c1ccc(Br)cc1)c1ccc(Br)cc1` (configuration not stated), the TGI in the assay with A498 renal was 29.3 µM; in the assay on SR leukemia, more than 100 µM; in the assay with CCRF-CEM leukemia it was more than 100 µM; with SK-OV-3 ovarian, 33.1 µM; in the assay with SF-268 CNS it was 32.4 µM; in the assay on CAKI-1 renal, 37.1 µM. In addition, the TGI turned out to be 9.01 µM in the assay with RXF 393 renal, 27.5 µM in the assay with SK-MEL-5 melanoma and 31.3 µM in the assay on SW-620 colon.

As to `O=C(N[C@@H](c1ccc(Cl)c(Cl)c1)C1CNC1)c1ccc2cnccc2c1`, the GI50 in the assay with A498 renal was 0.157 µM; in the assay with CCRF-CEM leukemia it was 0.189 µM; with SK-OV-3 ovarian it was 0.239 µM; with SF-268 CNS it was 0.924 µM; in the assay on CAKI-1 renal, 0.068 µM; with RXF 393 renal it was 0.023 µM. Moreover, the GI50 is 0.639 µM in the assay on MDA-MB-231 breast, 2.85 µM in the assay with SK-MEL-5 melanoma and 0.41 µM in the assay on SW-620 colon. Also, the concentration for total growth inhibition (TGI) worked out at 1.36 µM in the assay with A498 renal; 14.6 µM in the assay on CCRF-CEM leukemia; 6.86 µM in the assay on SK-OV-3 ovarian; 3.16 µM with SF-268 CNS; 2.27 µM in the assay with CAKI-1 renal; 0.191 µM with RXF 393 renal. The total growth inhibition concentration (TGI) in the assay on MDA-MB-231 breast was 15 µM; with SK-MEL-5 melanoma, 12.1 µM; with SW-620 colon, 12.3 µM.

For `CCOc1ccc(NC(=O)CC#N)cc1`, the TGI in the assay on A498 renal, with SR leukemia, in the assay with CCRF-CEM leukemia, in the assay on SK-OV-3 ovarian, with SF-268 CNS and with CAKI-1 renal was more than 100 µM each time. Moreover, the TGI in the assay on RXF 393 renal, in the assay on SK-MEL-5 melanoma and with SW-620 colon was more than 100 µM each time.

Consider `O=C(c1ccccc1Br)C(F)(F)F`, for which the TGI with A498 renal, with SR leukemia, in the assay with CCRF-CEM leukemia, in the assay on SK-OV-3 ovarian, in the assay with SF-268 CNS and in the assay on CAKI-1 renal was more than 100 µM throughout. Further, the TGI in the assay on MDA-MB-231 breast, with SK-MEL-5 melanoma and in the assay on SW-620 colon was more than 100 µM each time.

Take `COc1cc2c3c(n(C)c(=O)c2cc1OC)-c1cc2c(cc1/C3=C\CN)OCO2`: the GI50 in the assay on A498 renal is 3.07 µM; in the assay with CCRF-CEM leukemia, 0.124 µM; with SK-OV-3 ovarian, 0.412 µM; in the assay with SF-268 CNS, 0.433 µM; with CAKI-1 renal, 0.132 µM; with RXF 393 renal, 3.17 µM. Moreover, the GI50 with MDA-MB-231 breast was 5.8 µM; in the assay on SK-MEL-5 melanoma it was 0.296 µM. The total growth inhibition concentration (TGI) is 86.8 µM with A498 renal; 6.97 µM in the assay with CCRF-CEM leukemia; more than 79.2 µM in the assay on SF-268 CNS; 1.81 µM in the assay on CAKI-1 renal; more than 45.8 µM with RXF 393 renal; more than 35.4 µM in the assay on MDA-MB-231 breast. Also, the results for the TGI in the assay with SK-MEL-5 melanoma and with SW-620 colon were 2.32 µM and more than 41.3 µM, respectively.

`CO/N=C(\COc1ccc2c(c1)oc(=O)c1cc(OC)ccc12)c1ccc(OC)cc1`: the GI50 with A498 renal, in the assay with CCRF-CEM leukemia, in the assay on SK-OV-3 ovarian, with SF-268 CNS, with CAKI-1 renal and in the assay with RXF 393 renal was more than 100 µM in each case. Moreover, the GI50 in the assay with MDA-MB-231 breast, in the assay on SK-MEL-5 melanoma and in the assay on SW-620 colon was more than 100 µM in each case. The TGI in the assay on A498 renal, in the assay with CCRF-CEM leukemia, with SK-OV-3 ovarian, in the assay on SF-268 CNS, with CAKI-1 renal and with RXF 393 renal was more than 100 µM throughout. The concentration for total growth inhibition (TGI) with MDA-MB-231 breast, in the assay with SK-MEL-5 melanoma and with SW-620 colon was more than 100 µM in each case.

With `O=C(/C=C/c1cccc2ccccc12)c1ccccc1Cl`, the total growth inhibition concentration (TGI) in the assay with A498 renal was determined as 29.5 µM; in the assay on SR leukemia, 11.3 µM; in the assay on CCRF-CEM leukemia it was 17.2 µM; in the assay on SK-OV-3 ovarian, 43.1 µM; in the assay with SF-268 CNS it was 36.5 µM; in the assay with CAKI-1 renal it was 27.9 µM. Besides, the TGI with RXF 393 renal turned out to be 32.4 µM; in the assay with SK-MEL-5 melanoma, 30.8 µM; with SW-620 colon it was 17.6 µM.

Consider `CN(C)CC1CCCC/C1=N/OC(=O)c1ccc(Cl)cc1` (configuration not stated), for which the TGI in the assay with A498 renal, in the assay on SR leukemia, in the assay on CCRF-CEM leukemia, in the assay on SK-OV-3 ovarian, in the assay on SF-268 CNS and in the assay with CAKI-1 renal was more than 100 µM in each case. Also, the total growth inhibition concentration (TGI) with RXF 393 renal and in the assay with SW-620 colon was more than 100 µM in each case.

As to `Cc1[nH]c2ccccc2c1C(=O)/C=C/c1ccccc1O`, the total growth inhibition concentration (TGI) in the assay with A498 renal, in the assay with SR leukemia, with CCRF-CEM leukemia, in the assay with SK-OV-3 ovarian, with SF-268 CNS and with CAKI-1 renal was more than 100 µM throughout. In addition, the TGI in the assay with RXF 393 renal, in the assay on SK-MEL-5 melanoma and with SW-620 colon was more than 100 µM throughout.
